Test results: US20240142467A1, “Use of Biomarkers in the Treatment of Fibrotic Conditions with a PDE4B-inhibitor” (Boehringer Ingelheim International GmbH, priority 2022, published 2024)
pIC50: −log10 of the molar value. Read-outs that look alike come from different tables or passages of the source.

Assays:
[1] = tested on: IPF-rc-stimulated primary human small airway epithelial cells (SAEC); experiment: Biomarker release of IPF-rc-stimulated small airway epithelial cells (ELISA of supernatants); format: cell-based; conditions: for inhibition at 10 µM / pIC50: Homo sapiens; for inhibition at 10 µM: SAEC, highest concentration 10 μM; for pIC50: SAEC from 5 donors, 30 min pre-stimulation, supernatants 72 hrs after stimulation
Method: Small airway epithelial cells of primary human origin at passage 4 were seeded in PneumaCult-Ex Plus complete medium onto rat tail collagen type I (30 μg/mL in PBS) coated 24-well plates.
After incubation for 24 hrs at 37° C. and 5% CO2 cells were pre-stimulated with the PDE4-inhibitor of formula A′ for 30 min in different concentrations in PneumaCult-Ex Plus starving medium.
Afterwards an IPF-relevant cytokine cocktail (Schruf E, Schroeder V, Le H Q, Schönberger T, Raedel D, Stewart E L, Fundel-Clemens K, Bluhmki T, Weigle S, Schuler M, Thomas M J, Heilker R, Webster M J, Dass M, Frick M, Stierstorfer B, Quast K, Garnett J P. Recapitulating idiopathic pulmonary fibrosis related alveolar epithelial dysfunction in a human iPSC-derived air-liquid interface model. FASEB J. 2020 June; 34(6):7825-7846) was added to induce fibrotic changes. 72 hrs after stimulation supernatants were collected and analyzed using R&D DuoSet ELISAs following the manufacturers protocol.
To determine the inhibitory potency of the PDE4-inhibitor of formula A′ on biomarker release of IPF-rc-stimulated primary human small airway epithelial cells, the supernatants of the cell culture from 5 different donors were analyzed.

[2] = tested on: patients with idiopathic pulmonary fibrosis; experiment: Phase 2 trial NCT04419506: treatment-emergent adverse events; conditions: for mean observed weight loss: over 12 weeks; for Any adverse event: 18 mg twice daily, 12 weeks
Text: The study was a double-blind, placebo-controlled, parallel-design, Phase 2 study performed at 90 sites in 22 countries. […] After completion of the 12-week treatment period, patients entered a 1-week follow-up period. Patients who prematurely discontinued study medication were asked to attend all visits as originally planned to minimize missing data. […] Patients, investigators, central reviewers, and those involved in the study conduct and analysis were unaware of the treatment assignments. An interactive voice-response system was used to perform randomization.
The secondary endpoint was the percentage of patients with treatment-emergent adverse events.
All treated patients were included in the safety analysis, stratified by use of background antifibrotics (no or yes), and the analysis was descriptive in nature. Safety was assessed by clinical and laboratory evaluation and the recording of treatment-emergent adverse events, as coded with the use of the Medical Dictionary for Regulatory Activities, version 22.0.

[3] = with background antifibrotics (N = 49)
[4] = without background antifibrotics
[5] = without background antifibrotics (N = 48)

[O-][S@+]1CCc2nc(N3CCC(c4ncc(Cl)cn4)CC3)nc(NC3(CO)CCC3)c21 [Compound of formula A′]
inhibition at 10 µM ([1]; read-out: maximal inhibition of CTGF release): 75% | inhibition at 10 µM ([1]; read-out: maximal inhibition of MMP7 release): 63% | inhibition at 10 µM ([1]; read-out: maximal inhibition of OPN release): 67% | inhibition at 10 µM ([1]; read-out: maximal inhibition of sICAM release): 39% | pIC50 ([1]; read-out: IC50 of IPF-rc-induced release of CTGF): ~6.43 | pIC50 ([1]; read-out: IC50 of IPF-rc-induced release of MMP7): ~5.36 | pIC50 ([1]; read-out: IC50 of IPF-rc-induced release of OPN): ~5.96 | pIC50 ([1]; read-out: IC50 of IPF-rc-induced release of sICAM): ~6.27 | inhibition of the release of PAI1 (plasminogen activator inhibitor 1) ([1]; IPF-rc-stimulated SAEC): concentration dependent manner | mean observed weight loss ([2]; group with antifibrotics): -1.41 kg | mean observed weight loss ([2]; group without antifibrotics): -0.76 kg | patients with fatal adverse events ([2]; treatment arm, both background groups together): 2 patients | discontinuation of the study because of adverse events ([2]; with background antifibrotics): 10 patients | patients with gastrointestinal disorders ([2]; with background antifibrotics): 36.7% | patients with serious adverse events ([2]; with background antifibrotics): 6.1% | patients with severe adverse events ([2]; with background antifibrotics): 4.1% | Adverse events leading to discontinuation of study drug [2, 3]: 10 (20.4) n (%) | Asthenia [2, 3]: 1 (2.0) n (%) | Cough [2, 3]: 4 (8.2) n (%) | Decreased appetite [2, 3]: 2 (4.1) n (%) | Diarrhea [2, 3]: 15 (30.6) n (%) | Diarrhea leading to discontinuation [2, 3]: 3 (6.1) n (%) | Dyspepsia [2, 3]: 2 (4.1) n (%) | Dyspnea [2, 3]: 0 (0.0) n (%) | Fatigue [2, 3]: 1 (2.0) n (%) | Flatulence [2, 3]: 2 (4.1) n (%) | Gastrointestinal disorders [2, 3]: 18 (36.7) n (%) | General disorders and administration site conditions [2, 3]: 7 (14.3) n (%) | Headache [2, 3]: 3 (6.1) n (%) | Infections and infestations [2, 3]: 7 (14.3) n (%) | Investigations [2, 3]: 10 (20.4) n (%) | Investigator-defined drug-related adverse events [2, 3]: 18 (36.7) n (%) | Metabolism and nutrition disorders [2, 3]: 3 (6.1) n (%) | Nasopharyngitis [2, 3]: 4 (8.2) n (%) | Nausea [2, 3]: 1 (2.0) n (%) | Nervous system disorder [2, 3]: 9 (18.4) n (%) | Patients with pre-specified adverse events of special interest (vasculitis and hepatic injury) [2, 3]: 1 (2.0) n (%) | Respiratory thoracic and mediastinal disorders [2, 3]: 6 (12.2) n (%) | Serious adverse events: All [2, 3]: 3 (6.1) n (%) | Serious adverse events: Other comparable medical criteria [2, 3]: 0 (0.0) n (%) | Serious adverse events: Required or prolonged hospitalization [2, 3]: 3 (6.1) n (%) | Serious adverse events: Resulted in death [2, 3]: 1 (2.0) n (%) | Severe adverse events [2, 3]: 2 (4.1) n (%) | Vomiting [2, 3]: 2 (4.1) n (%) | Weight decreased [2, 3]: 1 (2.0) n (%) | Any adverse event [2, 3]: 36 (73.5) n (%) | patients with serious adverse events ([2]; without antifibrotics): 6.3% | discontinuation of the study because of adverse events [2, 4]: 3 patients | patients with gastrointestinal disorders [2, 4]: 27.1% | patients with severe adverse events [2, 4]: 4.2% | Adverse events leading to discontinuation of study drug [2, 5]: 3 (6.3) n (%) | Asthenia [2, 5]: 3 (6.3) n (%) | Cough [2, 5]: 3 (6.3) n (%) | Decreased appetite [2, 5]: 1 (2.1) n (%) | Diarrhea [2, 5]: 8 (16.7) n (%) | Diarrhea leading to discontinuation [2, 5]: 0 (0.0) n (%) | Dyspepsia [2, 5]: 3 (6.3) n (%) | Dyspnea [2, 5]: 3 (6.3) n (%) | Fatigue [2, 5]: 2 (4.2) n (%) | Flatulence [2, 5]: 3 (6.3) n (%) | Gastrointestinal disorders [2, 5]: 13 (27.1) n (%) | General disorders and administration site conditions [2, 5]: 9 (18.8) n (%) | Headache [2, 5]: 3 (6.3) n (%) | Infections and infestations [2, 5]: 6 (12.5) n (%) | Investigations [2, 5]: 5 (10.4) n (%) | Investigator-defined drug-related adverse events [2, 5]: 9 (18.8) n (%) | Metabolism and nutrition disorders [2, 5]: 1 (2.1) n (%) | Nasopharyngitis [2, 5]: 0 (0.0) n (%) | Nausea [2, 5]: 2 (4.2) n (%) | Nervous system disorder [2, 5]: 4 (8.3) n (%) | Patients with pre-specified adverse events of special interest (vasculitis and hepatic injury) [2, 5]: 0 (0.0) n (%) | Respiratory thoracic and mediastinal disorders [2, 5]: 8 (16.7) n (%) | Serious adverse events: All [2, 5]: 3 (6.3) n (%) | Serious adverse events: Other comparable medical criteria [2, 5]: 1 (2.1) n (%) | Serious adverse events: Required or prolonged hospitalization [2, 5]: 2 (4.2) n (%) | Serious adverse events: Resulted in death [2, 5]: 1 (2.1) n (%) | Severe adverse events [2, 5]: 2 (4.2) n (%) | Vomiting [2, 5]: 1 (2.1) n (%) | Weight decreased [2, 5]: 2 (4.2) n (%) | Any adverse event [2, 5]: 31 (64.6) n (%)
